This note sets out measurements from patent US20250325508A1, “MODULATORS OF PROTEASOME DYNAMICS AND/OR FUNCTION, COMPOSITIONS, METHODS, AND THERAPEUTIC USES THEREOF” (TECHNION RESEARCH & DEVELOPMENT FOUNDATION LIMITED, priority 2022, published 2025).

Each structure is given as a SMILES string.

Assay [1] concerns proteasome. The experiment in a line: Mass spectrometric analysis of proteasome sub-complexes' composition (assembly). Format: cell-based, human. Conditions: starvation plus substance. As for the experimental part:
Analysis of proteasome assembly and sub-complex composition was performed using the MCP20 antibody against the α6 proteasome subunit, as previously described using the MCP21 antibody against α2 [B. Fabre et al., Mol. Cell. Proteomics 12, 687-699 (2013)]. Briefly, following the indicated treatments, cell lysates were immunoprecipitated using the α6 antibody, and the precipitates were subjected to proteomic mass spectrometry. Intensities of the different proteasomal subunits were normalized according to the median of intensities measured for all 20S subunits. Ratios were calculated for each condition relative to untreated cells (control). The color scale represents Log 2 fold-change.

The test system of the next assay is HeLa cells. The experiment in a line: Proteomic mass-spectrometric analysis of cellular protein levels. Format: cell-based, human. The following applies: St.+LMB or St.+YWF vs Cont. The method, then: 2-3 mg of cell extract protein in 8 M Urea and 100 mM ammonium bicarbonate, were incubated with DTT (2.8 mM; 30 min at 60° C.), modified with iodoacetamide (8.8 mM; 30 min at room temperature in the dark), and digested (overnight at 37° C.) with modified trypsin (Promega; 1:50 enzyme-to-substrate ratio) in 2 M Urea and 25 mM ammonium bicarbonate. Additional second trypsinization was carried out for 4 h. The tryptic peptides were desalted using Sep-Pak C18 (Waters) and dried. 10 μg of protein were used for proteome analysis as described under Mass spectrometry.
Tryptic peptides were analyzed by LC-MS/MS using a Q Exactive plus mass spectrometer (Thermo Fisher Scientific) fitted with a capillary HPLC (easy nLC 1000, Thermo). […]
The mass spectrometry raw data were analyzed by the MaxQuant software (version 1.4.1.2, http://www.maxquant.org) for peak picking and quantification. […] The MaxQuant software was used for label-free semi-quantitative analysis [based on extracted ion currents (XICs) of peptides], enabling quantification from each LC/MS run for each peptide identified in any of the experiments. In samples that were SILAC-labeled, quantification was also carried out using the MaxQuant software. […]

Assay [2] relates to proteasome. The experiment in a line: Live imaging of proteasome activity probe Me4BodipyFL-Ahx3Leu3VS. Conditions: addition to the starvation medium, HeLa cells. The format is cell-based, human. The method, then: Live cell proteasome activity was followed as previously described [C. R. Berkers et al., Mol Pharm 4, 739-748 (2007)]. In brief, Me4BodipyFL-Ahx3Leu3VS was added to the medium to a final concentration of 1 μM. Following incubation for 15 min, the cells were visualized by a Zeiss LSM 700 confocal microscope. In vitro proteasome activity assay was carried out as previously described [O. Braten et al., Proc. Natl. Acad. Sci. 113, E4639-47 (2016)]. In brief, cellular fractions were incubated at 37° C. for 30 min with 5 μM Suc-LLVY-AMC (Succinyl-Leu-Leu-Val-Tyr-amido-4-methylcoumarin) in a reaction buffer (40 mM Tris-HCl pH 7.2, 2 mM DTT, 5 mM MgCl2, 10 mM creatine phosphate, 0.1 mg/ml creatine phosphate kinase, 5 mM ATP). Reactions were stopped by adding 1% SDS, and fluorescence was measured at 360/460 nm (ex/em).

The next assay has as its system autophagy. The experiment in a line: Autophagy (LC3 lipidation, RFP-GFP-LC3 autophagic flux). The format is cell-based, human. Conditions: LC3 Western blot and GFP-RFP-LC3 autophagic flux, HeLa cells. As for the experimental part: Cells were washed twice with ice cold PBS and scraped into lysis buffer (50 mM Tris-HCl, pH 7.4, 130 mM NaCl, 0.5% NP-40) supplemented with freshly added protease inhibitor cocktail, 5 mM ATP, 10 mM iodoacetamide, and 5 mM N-ethyl maleimide. Protein concentration was measured by the BCA assay according to the manufacturer's instructions (Pierce, Rockford, IL). 30 μg of cellular protein were resolved via SDS-PAGE, transferred to a nitrocellulose membrane and immunoblotted with the appropriate antibody. Cells stably expressing the fusion of RFP-GFP-LC3 were treated as described and were visualized live, using high-throughput fluorescence microscopy (IXM-C, Molecular Devices) under controlled environment (21% O2, 5% CO2, 37° C.). Analysis of autophagic flux was made based on the differential signal in the green and red channels, as previously described [[…], et al. (2009). Cell 136, 521-534] Due to the instability of GFP in acidic pH, only RFP retains its fluorescence in the acidic lysosome, while both are visible in the autophagosome. The RFP: GFP puncta ratio is indicating the extent of autophagy activation, or flux. The figure presents mean+/-SD and Student's T-Test p-values of three replicates.
(In general: Immunoblotting shows a protein as a band on a membrane.)

The target in the next assay is T1, exportin1 (Homo sapiens, UniProt O14980).
T1 construct: endogenous in cells; host or cells: HeLa
The experiment in a line: Localization of exportin1 substrates (p65, APC, NES-GFP). Format: cell-based. The following applies: HeLa cells. As for the experimental part: Cells were seeded on glass cover slips for 36 h. Following the indicated treatments, they were fixed with 4% PFA for 15 min, washed with phosphate-buffered saline (PBS) and incubated in PBS containing 10% goat serum for 1 h at room temperature, followed by 2 h incubation with the indicated primary antibody. Following extensive wash with PBS, the fixed cells were incubated with the relevant secondary antibody for 1 h, washed and mounted. Images were acquired using Zeiss LSM 700 confocal microscope (Zeiss, Oberkochen, Germany).

T1 sequence (O14980 whole entry): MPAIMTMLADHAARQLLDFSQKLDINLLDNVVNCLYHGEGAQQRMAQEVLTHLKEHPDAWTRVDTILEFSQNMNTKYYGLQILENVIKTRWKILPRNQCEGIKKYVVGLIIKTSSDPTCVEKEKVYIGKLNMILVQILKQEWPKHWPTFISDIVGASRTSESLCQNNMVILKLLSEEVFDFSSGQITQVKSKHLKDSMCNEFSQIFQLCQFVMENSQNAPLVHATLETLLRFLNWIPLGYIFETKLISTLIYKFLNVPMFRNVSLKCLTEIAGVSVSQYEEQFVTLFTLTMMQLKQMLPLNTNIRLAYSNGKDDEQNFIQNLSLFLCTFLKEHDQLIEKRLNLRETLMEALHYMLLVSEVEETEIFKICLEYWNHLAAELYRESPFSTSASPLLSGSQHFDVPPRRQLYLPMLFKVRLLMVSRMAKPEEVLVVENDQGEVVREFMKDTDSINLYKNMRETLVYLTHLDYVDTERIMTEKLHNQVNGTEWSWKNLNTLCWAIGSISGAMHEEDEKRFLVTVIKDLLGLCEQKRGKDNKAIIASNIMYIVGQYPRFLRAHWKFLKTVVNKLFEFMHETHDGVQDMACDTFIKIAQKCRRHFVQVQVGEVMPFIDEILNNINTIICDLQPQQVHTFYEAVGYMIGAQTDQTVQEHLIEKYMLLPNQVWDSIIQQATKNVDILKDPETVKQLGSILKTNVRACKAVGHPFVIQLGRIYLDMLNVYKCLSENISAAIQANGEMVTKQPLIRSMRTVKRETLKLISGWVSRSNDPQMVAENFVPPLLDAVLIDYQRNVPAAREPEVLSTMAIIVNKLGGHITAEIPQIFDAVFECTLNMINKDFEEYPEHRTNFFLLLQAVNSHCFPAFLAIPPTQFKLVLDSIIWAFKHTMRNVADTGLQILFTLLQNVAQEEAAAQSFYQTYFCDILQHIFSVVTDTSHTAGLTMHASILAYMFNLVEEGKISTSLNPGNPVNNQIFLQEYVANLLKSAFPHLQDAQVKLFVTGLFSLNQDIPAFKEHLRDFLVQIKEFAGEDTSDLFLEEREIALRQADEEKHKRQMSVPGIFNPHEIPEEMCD

`CCC(=C/[C@H](C)C/C=C/C(C)=C/[C@@H](C)C(=O)[C@@H](C)[C@H](O)[C@@H](C)C/C(C)=C/C(=O)O)/C=C/[C@@H]1OC(=O)C=C[C@@H]1C` [Leptomycin B]: the “effect of stress on proteasome assembly (20S and 19S sub-complexes)” value with proteasome [1] was “did not reverse the effect of stress on proteasome assembly”. The “accelerated degradation of cellular proteins upon starvation” value in the assay with HeLa cells is given as “accelerated degradation was prevented”. Moreover, the “localization of proteasomal activity (nucleus vs cytosol)” value with proteasome [2] was “preventing the shift in its dominance from the nucleus to the cytosol”. For the same compound, in the assay on autophagy, the autophagy under starvation result is reported as “not inhibited”. For the same compound, the “nuclear export/localization of exportin1 substrates p65 subunit of NF-κB and APC” value at exportin1 was “inhibited nuclear export of two known substrates of exportin1”. For the same compound, the “localization of GFP fused to a nuclear export signal (NES)” value on exportin1 (8 h) is “nuclear accumulation of GFP fused to a nuclear export signal (NES)”.
